Patent publication US20250250287A1, “HETEROCYCLIC COMPOUNDS, COMPOSITIONS THEREOF, AND METHODS OF TREATMENT THEREWITH” (BeiGene Switzerland GmbH, priority 2022, published 2025)

These compounds were tested on pERK1/2(THR202/TYR204) level in SW620 cell line (KRAS G12V) (assay: KRAS G12V pERK assay (HTRF) in SW620 cell line). Conditions: Homo sapiens, SW-620, 2 h, SW620 cells, 2 hrs compound treatment.
Type: cell-based
Experimental: SW620 cell line was used in this study. Cells were maintained in RPMI 1640 supplemented with 10% fetal bovine serum (Thermo Fisher), 50 units/mL penicillin and streptomycin (Thermo Fisher) and kept at 37° C. in a humidified atmosphere of 5% CO2 in air. Cells were reinstated from frozen stocks that were laid down within 30 passages from the original cells purchased. 40000 cells per well were seeded into a 96-well plate and incubated overnight. Cells were treated with a 10-point dilution series. The final compound concentration is from 0 to 10 μM. After 2 hrs compound treatment, cells were lysed, and the pERK1/2(THR202/TYR204) level in the cell lysates was detected by HTRF kit (Cisbio). In brief, a total of 16 μL of cell lysate from each well of a 96-well plate was transferred to a 384-well white assay plate. Lysate from each well was incubated with 2 μL of Eu3+-cryptate (donor) labeled anti-phospho-ERK1/2 and 2 μL of D2 (acceptor) labeled anti-phospho-ERK1/2 antibodies (Cisbio) overnight in dark at room temperature. When donor and acceptor are in close proximity, excitation of the donor with laser triggers a Fluorescence Resonance Energy Transfer (FRET) towards the acceptor, which in turn fluoresces at 655 nm wavelength. FRET signals were measured using a PHERAstar FSX reader (BMG Labtech). IC50 determination was performed by fitting the curve of percent inhibition versus the log of the inhibitor concentration using Dotmatics.

| SMILES | IC50 |
| --- | --- |
| Nc1cc(Cl)c(C(F)(F)F)c(-c2nc3c4c(nc(OC[C@@]56CCCN5C[C@H](F)C6)nc4c2F)N2CCC[C@@H]2CO3)c1 [Example 13, 3-chloro-5-((R)-7-fluoro-5-(((2R,7aS)-2-fluorotetrahydro-1H-pyrrolizin-7a(5H)-yl)methoxy)-2,3,11,11a-tetrahydro-1H-10-oxa-3a,4,6,9-tetraazanaphtho[1,8-ef]azulen-8-yl)-4-(trifluoromethyl)aniline] | 648 nM |
| Nc1cc(Cl)c(C(F)(F)F)c(-c2nc3c4c(nc(OC[C@@]56CCCN5C[C@H](F)C6)nc4c2F)N2CCC[C@H]2CO3)c1 [Example 9, 3-chloro-5-((S)-7-fluoro-5-(((2R,7aS)-2-fluorotetrahydro-1H-pyrrolizin-7a(5H)-yl)methoxy)-2,3,11,11a-tetrahydro-1H-10-oxa-3a,4,6,9-tetraazanaphtho[1,8-e]azulen-8-yl)-4-(trifluoromethyl)aniline] | 890 nM |
| C#Cc1c(F)ccc2cc(O)cc(-c3cc4c5c(nc(OC[C@@]67CCCN6C[C@H](F)C7)nc5c3F)N3CC(F)(F)C[C@H]3CO4)c12 [Example 4, 5-ethynyl-6-fluoro-4-((S)-2,2,8-trifluoro-6-(((2R,7aS)-2-fluorotetrahydro-1H-pyrrolizin-7a(5H)-yl)methoxy)-2,3,12,12a-tetrahydro-1H-pyrrolo[2′,1′:3,4][1,4]oxazepino[5,6,7-de]quinazolin-9-yl)naphthalen-2-ol] | 658 nM |
| C#Cc1c(F)ccc2cc(O)cc(-c3nc4c5c(nc(OC[C@@]67CCCN6C[C@H](F)C7)nc5c3F)N3[C@H](CO4)C[C@@H]4C[C@@H]43)c12 [Example 32, 5-ethynyl-6-fluoro-4-((5aS,6aS,7aS)-1-fluoro-9-(((2R,7aS)-2-fluorotetrahydro-1H-pyrrolizin-7a(5H)-yl)methoxy)-5,5a,6,6a,7,7a-hexahydro-4-oxa-3,7b,8,10-tetraazacyclopropa[a]naphtho[1,8-gh]azulen-2-yl)naphthalen-2-ol] | 26 nM |
| Nc1cc(Cl)c(C(F)(F)F)c(-c2nc3c4c(nc(OC[C@@]56CCCN5C[C@H](F)C6)nc4c2F)N2CCCC[C@H]2CO3)c1 [Example 15, 3-chloro-5-((S)-1-fluoro-11-(((2R,7aS)-2-fluorotetrahydro-1H-pyrrolizin-7a(5H)-yl)methoxy)-5,5a,6,7,8,9-hexahydro-4-oxa-3,9a,10,12-tetraazabenzo[4,5]cyclohepta[1,2,3-de]naphthalen-2-yl)-4-(trifluoromethyl)aniline] | 187 nM |
| N#Cc1c(N)sc2c(F)ccc(-c3cc4c5c(nc(OC[C@@]67CCCN6C[C@H](F)C7)nc5c3F)N3CCC[C@H]3CO4)c12 [Example 1, 2-amino-7-fluoro-4-((S)-4-fluoro-2-(((2R,7aS)-2-fluorotetrahydro-1H-pyrrolizin-7a(5H)-yl)methoxy)-8a,9,10,11-tetrahydro-8H-pyrrolo[2′,1′:3,4][1,4]oxazepino[5,6,7-de]quinazolin-5-yl)benzo[b]thiophene-3-carbonitrile] | 290 nM |
| N#Cc1c(N)sc2c(F)ccc(-c3cc4c5c(nc(OC[C@@]67CCCN6C[C@H](F)C7)nc5c3F)N3CCC[C@@H]3CCO4)c12 [Example 5, 2-amino-7-fluoro-4-((R)-8-fluoro-6-(((2R,7aS)-2-fluorotetrahydro-1H-pyrrolizin-7a(5H)-yl)methoxy)-1,2,3,12,13,13a-hexahydropyrrolo[1′,2′:5,6][1,5]oxazocino[4,3,2-de]quinazolin-9-yl)benzo[b]thiophene-3-carbonitrile] | 668 nM |
| CC1Oc2nc(-c3cc(N)cc(Cl)c3C(F)(F)F)c(F)c3nc(OC[C@@]45CCCN4C[C@H](F)C5)nc(c23)N2CCC[C@@H]12 (stereo partly drawn) [Example 24, 3-chloro-5-((11aS)-7-fluoro-5-(((2R,7aS)-2-fluorotetrahydro-1H-pyrrolizin-7a(5H)-yl)methoxy)-11-methyl-2,3,11,11a-tetrahydro-1H-10-oxa-3a,4,6,9-tetraazanaphtho[1,8-ef]azulen-8-yl)-4-(trifluoromethyl)aniline] | 121 nM |

Now from value to compound:

| IC50 | SMILES |
| --- | --- |
| 91 nM | N#Cc1c(N)sc2c(F)ccc(-c3c(Cl)c4c5c(nc(OC[C@@]67CCCN6C[C@H](F)C7)nc5c3F)N3C[C@H](O)C[C@H]3CO4)c12 [Example 29, 2-amino-4-((2R,12aS)-10-chloro-8-fluoro-6-(((2R,7aS)-2-fluorotetrahydro-1H-pyrrolizin-7a(5H)-yl)methoxy)-2-hydroxy-2,3,12,12a-tetrahydro-1H-pyrrolo[2′,1′:3,4][1,4]oxazepino[5,6,7-de]quinazolin-9-yl)-7-fluorobenzo[b]thiophene-3-carbonitrile] |
| 73 nM | Nc1cc(Cl)c(C(F)(F)F)c(-c2nc3c4c(nc(OC[C@@]56CCCN5C[C@H](F)C6)nc4c2F)N2CC[C@@H]2CCO3)c1 [Example 23, 3-chloro-5-((R)-6-fluoro-4-(((2R,7aS)-2-fluorotetrahydro-1H-pyrrolizin-7a(5H)-yl)methoxy)-1,10,11,11a-tetrahydro-2H-9-oxa-2a,3,5,8-tetraazacyclobuta[4,5]cycloocta[1,2,3-de]naphthalen-7-yl)-4-(trifluoromethyl)aniline] |
| 66 nM | Nc1cc(Cl)c(C(F)(F)F)c(-c2nc3c4c(nc(OC[C@@]56CCCN5C[C@H](F)C6)nc4c2F)N2CCC[C@@H]2CCO3)c1 [Example 11, 3-chloro-5-((R)-7-fluoro-5-(((2R,7aS)-2-fluorotetrahydro-1H-pyrrolizin-7a(5H)-yl)methoxy)-1,2,3,11,12,12a-hexahydro-10-oxa-3a,4,6,9-tetraazacyclopenta[4,5]cycloocta[1,2,3-de]naphthalen-8-yl)-4-(trifluoromethyl)aniline] |
| 56 nM | N#Cc1c(N)sc2c(F)ccc(-c3c(Cl)c4c5c(nc(OC[C@@]67CCCN6C[C@H](F)C7)nc5c3F)N3CC[C@@H](O)C[C@H]3CO4)c12 [Example 31, 2-Amino-4-((8aS,10R)-6-chloro-4-fluoro-2-(((2R,7aS)-2-fluorotetrahydro-1H-pyrrolizin-7a(5H)-yl)methoxy)-10-hydroxy-8,8a,9,10,11,12-hexahydropyrido[2′,1′:3,4][1,4]oxazepino[5,6,7-de]quinazolin-5-yl)-7-fluorobenzo[b]thiophene-3-carbonitrile] |
| 53 nM | Nc1cc(Cl)c(C(F)(F)F)c(-c2nc3c4c(nc(OC[C@@]56CCCN5C[C@H](F)C6)nc4c2F)N2CCCCCC2CO3)c1 (stereo partly drawn) [Example 25, 3-chloro-5-(1-fluoro-12-(((2R,7aS)-2-fluorotetrahydro-1H-pyrrolizin-7a(5H)-yl)methoxy)-5a,6,7,8,9,10-hexahydro-5H-4-oxa-3,10a,11,13-tetraazanaphtho[1,8-ab]heptalen-2-yl)-4-(trifluoromethyl)aniline] |
| 49 nM | N#Cc1c(N)sc2c(F)ccc(-c3c(Cl)c4c5c(nc(OC[C@@]67CCCN6C[C@H](F)C7)nc5c3F)N3CCC[C@@H]3CCO4)c12 [Example 7, 2-amino-4-((13aR)-10-chloro-8-fluoro-6-(((2R,7aS)-2-fluorotetrahydro-1H-pyrrolizin-7a (5H)-yl)methoxy)-1,2,3,12,13,13a-hexahydropyrrolo[1′,2′:5,6][1,5]oxazocino[4,3,2-de]quinazolin-9-yl)-7-fluorobenzo[b]thiophene-3-carbonitrile] |
| 43 nM | C[C@@H]1Oc2nc(-c3cc(N)cc(Cl)c3C(F)(F)F)c(F)c3nc(OC[C@@]45CCCN4C[C@H](F)C5)nc(c23)N2CCCC[C@@H]12 [Example 33, 3-chloro-5-((5S,5aS)-1-fluoro-11-(((2R,7aS)-2-fluorotetrahydro-1H-pyrrolizin-7a(5H)-yl)methoxy)-5-methyl-5,5a,6,7,8,9-hexahydro-4-oxa-3,9a,10,12-tetraazabenzo[4,5]cyclohepta[1,2,3-de]naphthalen-2-yl)-4-(trifluoromethyl)aniline] |
| 43 nM | C#Cc1c(F)ccc2cc(O)cc(-c3nc4c5c(nc(OC[C@@]67CCCN6C[C@H](F)C7)nc5c3F)N3CCC[C@H]3CO4)c12 [Example 10, 5-ethynyl-6-fluoro-4-((S)-7-fluoro-5-(((2R,7aS)-2-fluorotetrahydro-1H-pyrrolizin-7a(5H)-yl)methoxy)-2,3,11,11a-tetrahydro-1H-10-oxa-3a,4,6,9-tetraazanaphtho[1,8-ef]azulen-8-yl)naphthalen-2-ol] |
| 31 nM | N#Cc1c(N)sc2c(F)ccc(-c3c(Cl)c4c5c(nc(OC[C@@]67CCCN6C[C@H](F)C7)nc5c3F)N3CCC[C@H]3CO4)c12 [Example 27, 2-amino-4-((S)-10-chloro-8-fluoro-6-(((2R,7aS)-2-fluorotetrahydro-1H-pyrrolizin-7a(5H)-yl)methoxy)-2,3,12,12a-tetrahydro-1H-pyrrolo[2′,1′:3,4][1,4]oxazepino[5,6,7-de]quinazolin-9-yl)-7-fluorobenzo[b]thiophene-3-carbonitrile] |
| 10 nM | C#Cc1c(F)ccc2cc(O)cc(-c3nc4c5c(nc(OC[C@@]67CCCN6C[C@H](F)C7)nc5c3F)N3CCCC[C@H]3[C@H](C)O4)c12 [Example 34, 5-ethynyl-6-fluoro-4-((5S,5aS)-1-fluoro-11-(((2R,7aS)-2-fluorotetrahydro-1H-pyrrolizin-7a(5H)-yl)methoxy)-5-methyl-5,5a,6,7,8,9-hexahydro-4-oxa-3,9a,10,12-tetraazabenzo[4,5]cyclohepta[1,2,3-de]naphthalen-2-yl)naphthalen-2-ol] |

Same assay, conditions: SW620 cells, 2 hrs compound treatment

| IC50 | SMILES |
| --- | --- |
| 326 nM | C#Cc1c(F)ccc2cc(O)cc(-c3nc4c5c(nc(OCC67CCCN6CC(F)C7)nc5c3F)N3CCC3CO4)c12 (single isomer, unassigned) [Example 18] |
